The source of these data is PMC4274986 (Journal of Molecular Recognition, 2014).

This assay deals with Streptavidin-R-phycoerythrin (SAPE). It is filed as binding.

Regarding FTSSPSKHPQVEAGV [R441], the “SAPE binding median fluorescence vs unlabeled controls” value is “comparable to the unlabeled controls”.
